Read-outs that look alike come from different tables or passages of the source.
Assays:
[1] = Measurement of thermal decomposition temperature (TG-DTA, 5% weight reduction); assay type: physicochemical
Protocol: As measuring conditions, the heating speed was 10° C./min and the air flow rate was 200 mL/min.

[2] = Comprehensive evaluation (thermal decomposition temperature, friction properties, solubility)
[3] = Solubility to fluorine-based solvent; conditions: 25° C.
Protocol: Various fluorine-based solvents were each added in a manner that a concentration was to be 1% by mass, and the resultant was stirred with maintaining the temperature at 25° C. The solubility was evaluated based on the following evaluation criteria.
• 1: The ionic liquid was dissolved in the fluorine-based solvent, and no precipitation was generated even after leaving the solution to stand. • 2: The ionic liquid was insoluble to the fluorine-based solvent, or was partially dissolved but precipitation was generated when the solution was left to stand. <<Friction Properties>> —Production of Lubricant-Coated Hard Disk—

[4] = TG-DTA, heating speed 10° C./min, air flow 200 mL/min

Molecule | Thermal decomposition (5% weight reduction) temperature [1, 4] [°C] | Thermal stability and friction coefficient (in words) [2] | Solubility to fluorine-based solvent ([3]; Novec 7100, 1% by mass) | Solubility to fluorine-based solvent ([3]; Novec 7200, 1% by mass) | Solubility to fluorine-based solvent ([3]; Novec 7300, 1% by mass) | Solubility to fluorine-based solvent ([3]; Vertrel XF, 1% by mass) | Thermal decomposition (5% weight reduction) temperature [1] [°C]
NCCOCC(F)(F)OC(F)(F)C(F)(F)OC(F)(F)C(F)(F)OC(F)(F)C(F)(F)C(F)(F)C(F)(F)F.O=S(=O)(O)C(F)(F)C(F)(F)C(F)(F)C(F)(F)F [Ex. 3, PFTEG amine-perfluorobutane sulfonic acid salt] | 302 | more excellent | 1 | 1 | 1 | 1 | 
octylamine-PFTEG sulfonic Acid Salt [Comp. Ex. 1, reference compound] | 276 |  |  |  |  |  | 
NCCOCC(F)(F)OC(F)(F)C(F)(F)OC(F)(F)C(F)(F)OC(F)(F)C(F)(F)C(F)(F)C(F)(F)F.O=S(=O)(O)CCCOCC(F)(F)OC(F)(F)C(F)(F)OC(F)(F)C(F)(F)OC(F)(F)C(F)(F)C(F)(F)C(F)(F)F [Ex. 1, PFTEG amine-PFTEG sulfonic acid salt] | 246 |  | 1 | 1 | 1 | 1 | 
octadecylamine-perfluoroheptanoic Acid Salt [compound 3, reference compound] | 204 |  | 2 | 2 | 2 | 2 | 
NCCC(F)(F)C(F)(F)C(F)(F)C(F)(F)C(F)(F)C(F)(F)C(F)(F)C(F)(F)F.O=S(=O)(O)CCCOCC(F)(F)OC(F)(F)C(F)(F)OC(F)(F)C(F)(F)OC(F)(F)C(F)(F)C(F)(F)C(F)(F)F [Ex. 2, 1H,1H,2H,2H-perfluorodecylamine-PFTEG sulfonic acid salt] |  |  |  |  |  |  | 254
NCCOCC(F)(F)OC(F)(F)C(F)(F)OC(F)(F)C(F)(F)OC(F)(F)C(F)(F)C(F)(F)C(F)(F)F.O=S(=O)(NS(=O)(=O)C(F)(F)C(F)(F)C(F)(F)C(F)(F)F)C(F)(F)C(F)(F)C(F)(F)C(F)(F)F [Ex. 5, PFTEG amine-bis(perfluorobutanesulfonyl)imide salt] | 291 |  | 1 | 1 | 1 | 1 | 
NCCC(F)(F)C(F)(F)C(F)(F)C(F)(F)C(F)(F)C(F)(F)C(F)(F)C(F)(F)F.O=C(O)C(F)(F)OC(F)(F)C(F)(F)OC(F)(F)C(F)(F)OC(F)(F)C(F)(F)C(F)(F)C(F)(F)F [Ex. 4, 1H,1H,2H,2H-perfluorodecylamine-perfluoro-3,6,9-trioxatridecanoic acid salt] | 169 |  | 1 | 1 | 1 | 1 | 
NCCC(F)(F)C(F)(F)C(F)(F)C(F)(F)C(F)(F)C(F)(F)C(F)(F)C(F)(F)F.O=S(=O)(O)C(F)(F)C(F)(F)C(F)(F)C(F)(F)F [compound 2, 1H,1H,2H,2H-perfluorodecylamine-perfluorobutane sulfonic acid salt, reference compound] | 308 |  | 2 | 2 | 2 | 2 | 

Source: US10141017B2, “Lubricant for magnetic recording medium, and magnetic recording medium” (Dexerials Corporation, priority 2015, dated 2018)
